# Results reported in US20250092029A1 (THE WISTAR INSTITUTE OF ANATOMY AND BIOLOGY, priority 2022, published 2025).
# Read-outs that look alike come from different tables or passages of the source.
# Assays:
# [1] = test system: SARS-CoV-2 Omicron (B.1.1.529); experiment: Virus replication in Vero-E6 cells, nucleocapsid immunostaining and high-content imaging, Omicron; type: cell-based; conditions: read-out: EC50 against virus replication
# [2] = test system: SARS-CoV-2 (WT virus, WA1/2020); experiment: Virus replication in Vero-E6 cells, alamar blue viability readout; type: cell-based; conditions: read-out: EC50 against virus replication
# [3] = test system: SARS-CoV-2 Delta (B.1.617); experiment: Virus replication in Vero-E6 cells, nucleocapsid immunostaining and high-content imaging, Delta; type: cell-based; conditions: for EC50: read-out: EC50 against virus replication
# [4] = test system: SARS-CoV-2 Beta (B.1.351); experiment: Virus replication in Vero-E6 cells, nucleocapsid immunostaining and high-content imaging, Beta; type: cell-based
# SARS-CoV-2 WT (WA1/2020) = experiment: Virus replication in Vero-E6 cells, nucleocapsid immunostaining and high-content imaging, WT; type: cell-based; conditions: for EC50: WT (WA1/2020), 150× TCID50, 48 h, high-content imaging, read-out: EC50 against virus replication
# [5] = Metabolic stability in mouse liver microsomes
# SARS-CoV-2 Mpro = SARS-CoV-2 Mpro (Severe acute respiratory syndrome coronavirus 2 (2019-nCoV) (SARS-CoV-2), UniProt P0DTD1); experiment: biochemical; type: biochemical
# [6] = hamster, in vivo, ip, 10 mg/kg
# Protocol: (§1) The compound was administered as a single dose at 10 mg/kg via intraperitoneal injection formulated in 10% DMSO/10% Solutol® HS15/PBS at 2 mg/mL (FIG. 7).
# thrombin = thrombin (Homo sapiens (Human), UniProt P00734); experiment: Thrombin enzymatic assay; type: biochemical
# Protocol: Thrombin enzymatic assay Assays contained 25 pM thrombin (RD systems: 1473-SE-010), 25 uM BOC—PVR-AMC, 100 nL of test compound in 100% DMSO, in at total of 10 μL of 50 mM Tris, pH 7.0, 100 mM NaCl, 10 mM CaCl2, 0.005% Tween20 in black low volume 384-well plates. The production of AMC was followed at 5 min intervals at 355 nm excitation, 460 nm emission in an Envision microplate reader (PerkinElmer). Reaction rates were determined by linear regression of the resulting progress curves. […] Nonlinear regression fits of the data to a one-site dose response curve were performed using XLFit (IDBS).
# [7] = Male hamster pharmacokinetic study, plasma and lung; conditions: ip, 10 mg/kg
# Protocol: as §1
# cathepsin B = cathepsin B (Homo sapiens (Human), UniProt P07858); experiment: Cathepsin B enzymatic assay; type: biochemical
# Protocol: Cathepsin B enzymatic assay Assays contained 0.6 nM cathepsin B (RD systems: 953-CY-010), 25 uM Z-LR-AMC, 100 nL of test compound in 100% DMSO, in at total of 10 uL of 50 mM MES, pH 5.0, 150 mM NaCl, 0.05% CHAPS, 5 mM DTT in black low volume 384-well plates. The production of AMC was followed at 5 min intervals at 355 nm excitation, 460 nm emission in an Envision microplate reader (PerkinElmer). Reaction rates were determined by linear regression of the resulting progress curves. […] Nonlinear regression fits of the data to a one-site dose response curve were performed using XLFit (IDBS).
# cathepsin L = cathepsin L (Homo sapiens (Human), UniProt P07711); experiment: Cathepsin L enzymatic assay; type: biochemical
# Protocol: Cathepsin L enzymatic assay Assays contained 25 pM cathepsin L (RD systems: 952-CY-010), 5 uM LR-AMC, 100 nL of test compound in 100% DMSO, in at total of 10 uL of 20 mM KPO4, pH 6.0, 150 mM NaCl, 0.005% Tween20, 5 mM DTT in black low volume 384-well plates. The production of AMC was followed at 5 min intervals at 355 nm excitation, 460 nm emission in an Envision microplate reader (PerkinElmer). Reaction rates were determined by linear regression of the resulting progress curves. […] Nonlinear regression fits of the data to a one-site dose response curve were performed using XLFit (IDBS).
# [8] = Severe acute respiratory syndrome coronavirus 2, Vero C1008, 48 h
# [9] = Severe acute respiratory syndrome coronavirus 2, Vero C1008, 96 h, WT (WA1/2020), 96 h, alamar blue viability
# [10] = WT (WA1/2020), 96 h, alamar blue viability
# cathepsin L, sequence (P07711 114-333): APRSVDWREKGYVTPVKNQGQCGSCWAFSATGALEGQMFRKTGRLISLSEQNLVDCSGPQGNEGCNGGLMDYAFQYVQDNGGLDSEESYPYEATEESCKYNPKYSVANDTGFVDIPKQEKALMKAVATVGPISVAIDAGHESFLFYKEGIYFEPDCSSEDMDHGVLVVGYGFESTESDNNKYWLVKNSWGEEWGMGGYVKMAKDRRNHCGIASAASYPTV
Structure (SMILES),half-life [5] [min],incubation time to achieve maximum inhibition (SARS-CoV-2 Mpro) [h],IC50 (thrombin) [nM],"EC50 [2, 9] [nM]","EC50 [2, 10] [nM]",IC50 (cathepsin B; read-out: CatB IC50) [nM],IC50 (cathepsin L; read-out: CatL IC50) [nM],other results
CC(C)C[C@H](NC(=O)OCc1ccccc1)C(=O)N[C@@H](C[C@@H]1CCNC1=O)C(O)S(=O)(=O)O (stereo partly drawn) [GC-376],,,,,,,,"EC50 [1, 8]: 360 nM; EC50 ([2]; Severe acute respiratory syndrome coronavirus 2, Vero C1008, 96 h): 2050 nM; EC50 [3, 8]: 640 nM; EC50 ([4]; Severe acute respiratory syndrome coronavirus 2, Vero C1008, 48 h, read-out: EC50 against virus replication): 290 nM; EC50 (SARS-CoV-2 WT (WA1/2020); [8]): 270 nM"
"O=C(CN1C(=O)[C@@H](NC(=O)OCc2ccccc2)COc2ccccc21)N[C@@H](C[C@@H]1CCNC1=O)C(=O)COC(=O)c1c(Cl)cccc1Cl [AP-8-013, (S)-3-(2-((S)-3-(benzyloxycarbonylamino)-4-oxo-3,4-dihydrobenzo[b][1,4]oxazepin-5(2H)-yl)acetamido)-2-oxo-4-((S)-2-oxopyrrolidin-3-yl)butyl 2,6-dichlorobenzoate]",< 2,1 to 2,> 32000,< 10000,7250,18000,> 32000,"clinical symptoms during the in-life phase [6]: no abnormal clinical symptoms; lung concentration achieved ([6]; male): about 8 μM; reducing viral load (percent infected live cells) [3]: effective; Kp [7]: 3.2; reducing viral load (percent infected live cells) [4]: effective; IC50 (cathepsin B; read-out: Cathepsin B IC50): > 15000 nM; IC50 (cathepsin L; read-out: Cathepsin L IC50): > 15000 nM; reducing viral load (percent infected live cells) (SARS-CoV-2 WT (WA1/2020); WT (USA-WA1/2020), 50× TCID50, 48 h, FIG. 6): effective"
"N[C@H]1COc2ccccc2N(CC(=O)N[C@@H](C[C@@H]2CCNC2=O)C(=O)COC(=O)c2c(Cl)cccc2Cl)C1=O.O=C(O)C(F)(F)F [AP-9-055, (S)-3-(2-((S)-3-amino-4-oxo-3,4-dihydrobenzo[b][1,4]oxazepin-5(2H)-yl)acetamido)-2-oxo-4-((S)-2-oxopyrrolidin-3-yl)butyl 2,6-dichlorobenzoate 2,2,2-trifluoroacetate]",< 2,,,,,,,
"O=C(CN1C(=O)[C@@H](NC(=O)c2ccccc2)COc2ccccc21)N[C@@H](C[C@@H]1CCNC1=O)C(=O)COC(=O)c1c(Cl)cccc1Cl [AP-8-011, (S)-3-(2-((S)-3-benzamido-4-oxo-3,4-dihydrobenzo[b][1,4]oxazepin-5(2H)-yl)acetamido)-2-oxo-4-((S)-2-oxopyrrolidin-3-yl)butyl 2,6-dichlorobenzoate]",< 2,,> 32000,,,13000,> 32000,
"COc1cccc2[nH]c(C(=O)N[C@@H](CC(C)C)C(=O)N[C@@H](C[C@@H]3CCNC3=O)C(=O)COC(=O)c3c(Cl)cccc3Cl)cc12 [AP-8-001, reference compound]",< 2,≤ 0.167,> 10000,1970,,24 ± 7.5,1.8 ± 0.27,IC50 (SARS-CoV-2 Mpro): 11 nM
CC(C)(C)[C@H](NC(=O)C(F)(F)F)C(=O)N1C[C@H]2[C@@H]([C@H]1C(=O)N[C@H](C#N)C[C@@H]1CCNC1=O)C2(C)C [PF07321332],,,,,1570,,,EC50 [1]: 440 nM; EC50 [3]: 330 nM; EC50 (SARS-CoV-2 WT (WA1/2020)): 380 nM
